From the supplement of paper PMC10878532, “Sperm Toolbox—A selection of small molecules to study human spermatozoa” (PLOS ONE, 2024)
Structures can show the parent of a compound that is named as a salt.

What was measured:
[1] = test system: human spermatozoa; assay: total motile sperm, percent change vs DMSO (non-capacitating); higher = more of the measured sperm population than DMSO, for viability, fewer PI-positive (dead) cells than DMSO
[2] = test system: HepG2; assay: HepG2 toxicity (resazurin), effect normalised to DMSO (DMSO = 0); higher = more features changed / larger toxic effect; conditions: incubation time: 70h incubation
[3] = test system: human spermatozoa; assay: hyperactivated motile sperm, percent change vs DMSO (capacitating); higher = more of the measured sperm population than DMSO, for viability, fewer PI-positive (dead) cells than DMSO; conditions: incubation time: 30min incubation
[4] = test system: human spermatozoa; assay: progressively motile sperm, percent change vs DMSO (capacitating); higher = more of the measured sperm population than DMSO, for viability, fewer PI-positive (dead) cells than DMSO; conditions: incubation time: 30min incubation
[5] = test system: HeLa; assay: Cell Painting percent induction (share of features beyond 2 z-scores vs DMSO); higher = more features changed / larger toxic effect; extreme values may be limits of the assay; conditions: incubation time: 24h incubation
[6] = test system: human spermatozoa; assay: change in acrosome-reacted (PNA+) sperm vs DMSO, no agonist (capacitating); higher = more of the measured sperm population than DMSO, for viability, fewer PI-positive (dead) cells than DMSO; conditions: incubation time: 3h
[7] = test system: human spermatozoa; assay: acrosome-reacted (PNA+) sperm after agonist cocktail, percent change vs DMSO (capacitating); higher = more of the measured sperm population than DMSO, for viability, fewer PI-positive (dead) cells than DMSO; conditions: incubation time: 3h, capacitating + agonist cocktail 1h
[8] = test system: human spermatozoa; assay: viability fold change, 1 - (PI-positive fraction / DMSO median); higher = more of the measured sperm population than DMSO, for viability, fewer PI-positive (dead) cells than DMSO; conditions: incubation time: 3h, non-capacitating
[9] = test system: human spermatozoa; assay: progressively motile sperm, percent change vs DMSO (non-capacitating); higher = more of the measured sperm population than DMSO, for viability, fewer PI-positive (dead) cells than DMSO; extreme values may be limits of the assay
[10] = test system: HeLa; assay: HeLa toxicity: nuclei-count effect normalised to DMSO (DMSO = 0); higher = more features changed / larger toxic effect; conditions: incubation time: 24h incubation
[11] = incubation time: 10min incubation, 9.99 µM
[12] = incubation time: 10min incubation, 29.9 µM
[13] = incubation time: 3h incubation, 9.99 µM
[14] = incubation time: 3h incubation, 29.9 µM
[15] = incubation time: 6h incubation, 9.99 µM
[16] = incubation time: 6h incubation, 29.9 µM
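Throughout, for progressively motile sperm, percent change vs DMSO (non-capacitating): pooled live human sperm from at least 3 donors, tracked by automated microscopy in 0.5 s time-lapse movies, compounds at 10 and 30 µM, versus median of 16 DMSO wells per plate.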
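Throughout, for total motile sperm, percent change vs DMSO (non-capacitating): sperm pooled from at least 3 donors, tracked in 0.5 s time-lapse movies by automated microscopy after 10 min, 3 h or 6 h with compound at 10 or 30 µM.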

SMILES	total motile sperm [1, 11]	total motile sperm [1, 12]	total motile sperm [1, 13]	total motile sperm [1, 14]	total motile sperm [1, 15]	total motile sperm [1, 16]	HepG2 toxicity ([2]; 10 µM)	HepG2 toxicity ([2]; 30 µM)	hyperactivated motile sperm ([3]; 9.99 µM)	hyperactivated motile sperm ([3]; 29.9 µM)	progressively motile sperm ([4]; 9.99 µM)	progressively motile sperm ([4]; 29.9 µM)	Cell Painting percent induction ([5]; 9.99 µM)	Cell Painting percent induction ([5]; 29.9 µM)	change in acrosome-reacted ([6]; 9.99 µM)	change in acrosome-reacted ([6]; 29.9 µM)	acrosome-reacted ([7]; 9.99 µM)	acrosome-reacted ([7]; 29.9 µM)	viability fold change ([8]; 9.99 µM)	viability fold change ([8]; 29.9 µM)	progressively motile sperm [9, 11]	progressively motile sperm [9, 12]	progressively motile sperm [9, 13]	progressively motile sperm [9, 14]	progressively motile sperm [9, 15]	progressively motile sperm [9, 16]	HeLa toxicity: nuclei-count effect normalised ([10]; 9.99 µM)	HeLa toxicity: nuclei-count effect normalised ([10]; 29.9 µM)
C=C[C@@]1(C)CC(=O)[C@@]2(O)[C@](C)(O1)[C@@H](OC(C)=O)[C@@H](O)C1C(C)(C)CC[C@H](O)[C@@]12C (stereo partly specified) [Forskolin]	0.618%	0.675%	-0.0205%	4.68%	-0.697%	-0.227%	3.42%	-7.11%	26.6%	5.16%	7.73%	8.32%	1.19%	0.108%	0.404%	0.226%	0.165%	-4.34%	-0.712	-0.989	0.859%	0.86%	3.82%	13.8%	-0.781%	12%	-1.74%	-1.47%
O=c1c(-c2ccc(O)cc2)coc2cc(O)cc(O)c12 [Genistein]	-0.344%	-2.3%	-0.864%	0.829%	-0.945%	-6.76%	6.96%	-8.2%	20.2%	-0.318%	9.31%	12%	0.108%	0.612%	1.12%	1.51%	4.37%	8.14%	-0.643	-0.0998	5.98%	2.04%	6.38%	0.504%	9.21%	2.89%	17.4%	22.9%
Cc1cc2c(C(C)C)c(O)c(O)c(C=O)c2c(O)c1-c1c(C)cc2c(C(C)C)c(O)c(O)c(C=O)c2c1O [Gossypol]	-1.73%	0.377%	-2.73%	-0.0743%	-0.633%	-2.29%	54.9%	102%	-21.9%	-39.1%	-0.382%	7.08%	0.072%	17.1%	1.41%	1.17%	-15.6%	-28.9%	-0.0154	0.577	-3.27%	-2.36%	3.33%	-8.54%	12.2%	-12.2%	27.1%	73.1%
O=S(=O)(NCCNC/C=C/c1ccc(Br)cc1)c1cccc2cnccc12 [H 89 dihydrochloride]	5.7%	1.67%	2.42%	2.31%	2.24%	1.63%	-3.98%	92.3%	4.83%	-35.2%	9.41%	1.95%	0.648%	1.84%	0.62%	0.493%	4.9%	11.9%	-0.8	-1.21	12.9%	3.24%	21.9%	3.91%	27.7%	10.5%	7.55%	17.5%
Oc1c(Cl)cc(Cl)c(Cl)c1Cc1c(O)c(Cl)cc(Cl)c1Cl [Hexachlorophene]	-1.87%	-5.83%	-1.02%	-8.13%	-1.96%	-7.29%	56.3%	74.5%	-24.4%	-58.1%	-5.64%	-8.81%	0%	0.18%	0.634%	0.899%	-9.07%	-13.3%	-0.213	0.344	-23.5%	-48.4%	-39.7%	-63.9%	-37.2%	-61.3%	14%	33.9%
CC(C)Cn1c(=O)n(C)c(=O)c2[nH]cnc21 [IBMX]	-1.18%	1.45%	-5.33%	-3.42%	-1.15%	-4.45%	7.96%	-0.365%	67.7%	147%	12.9%	19.2%	0%	0.036%	0.651%	1.04%	36.8%	69.3%	-0.424	-0.627	18.9%	35.7%	40.5%	53.9%	53.1%	61.2%	3.07%	-2.27%
CC(C)Cn1cnc2c(N)nc3ccccc3c21 [Imiquimod]	-0.548%	1.37%	-4.33%	-4.6%	-4.54%	-9.83%	10.2%	-1.53%	65.2%	131%	7.22%	11.8%	0.612%	0%	1.03%	1.32%	34.9%	56.5%	-0.324	-0.489	24.4%	32.7%	49.3%	51.2%	58.8%	51.3%	6.28%	5.01%
Cc1sc2c(c1C)C(c1ccc(Cl)cc1)=N[C@@H](CC(=O)OC(C)(C)C)c1nnc(C)n1-2 [JQ1]	4.25%	1.65%	-3.02%	0.304%	-0.955%	-3.78%	56.3%		18.5%	-14.4%	15.8%	27.5%	0.684%	1.87%	0.641%	1.24%	17.2%	40.2%	-0.127	-0.0779	13.6%	21.5%	27.4%	52.8%	48%	55.5%	16.3%	31.3%
COc1cc(SC)ccc1C(=O)N1CCC(Cc2ccccc2)CC1 [JX 401]	3.2%	-0.475%	1.22%	-0.09%	0.862%	-0.188%	9.25%	-2.23%	19.2%	24.9%	4.17%	3.66%	0.036%	0%	0.294%	1.59%	15%	16.2%	-1.82	-1.65	2.94%	-4.03%	10.9%	7.53%	13.8%	14.6%	4.01%	2.67%
